{
  "source": "patent US4435329A",
  "about": "“Substituted N-(ω-aroylpropionyl) derivatives of α-amino acids and esters thereof” (American Cyanamid Company, priority 1981, dated 1984)",
  "tested_on": "angiotensin converting enzyme",
  "test": "in vitro spectrophotometric assay for inhibition of angiotensin converting enzyme (method of Cushman and Cheung)",
  "assay_type": "biochemical",
  "details": "crude extract of ACE from rabbit lung acetone powder; substrate benzoyl-glycyl-histidyl-leucine; 30 minutes at 37° C.; result in words only",
  "method": "The in vitro activity for inhibition of the angiotensin converting enzyme was measured by the method of D. W. Cushman and H. S. Cheung, Biochem. Pharmacol., Vol. 20, pages 1637-1648 (1972), using benzoyl-glycyl-histidyl-leucine as the substrate. The reaction mixture consisted of 50 μl. of potassium phosphate (500 mM., pH of […]), 30 μl. of sodium chloride (2500 mM.), 25 μl. of substrate (50 mM.), 30 to 50 μl. of the crude extract of ACE, 10 μl. of the test compound (2.5 mM.) or vehicle, and a suitable amount of distilled water to give a total volume of 250 μl. This reaction mixture was incubated for 30 minutes at 37° C. and the reaction was then terminated by the addition of 250 μl. of 1 N hydrochloric acid. The hippuric acid was then extracted with 1.5 ml. of ethyl acetate by vortex mixing for 15 seconds. After centrifugation, one ml. of the ethyl acetate layer was pipetted into a new tube and evaporated to dryness. The extracted hippuric acid was then dissolved in one ml. of water and the amount of this acid was then measured by its absorbance at 228 nm. […] The activity of the ACE inhibitor was calculated as the percent inhibition of ACE activity compared to the control value of that particular assay. […]",
  "data": [
    {"compound": "CC(=O)SC(CC(=O)N[C@H](C(=O)O)C(C)C)C(=O)c1ccc(Br)cc1", "note": "(stereo partly drawn) [Example 1, N-[3-Acetylthio-3-(4-bromobenzoyl)propionyl]-L-valine]", "values": [
      {"measurement": "inhibition of the angiotensin converting enzyme", "result": "angiotensin converting enzyme inhibitors"}
    ]},
    {"compound": "COc1ccc(C(=O)C(CC(=O)N[C@@H](Cc2ccccc2)C(=O)O)SC(C)=O)cc1F", "note": "(stereo partly drawn) [Example 23, N-[3-Acetylthio-3-(3-fluoro-4-methoxybenzoyl)propionyl]-L-phenylalanine]", "values": [
      {"measurement": "inhibition of the angiotensin converting enzyme", "result": "angiotensin converting enzyme inhibitors"}
    ]}
  ]
}
